In patent US9701709B2 (REATA PHARMACEUTICALS, INC., priority 2012, dated 2017):

Tests used:
[1] = system: NQO1 and HMOX1 protein in SH-SY5Y cells; test: Western blot of Nrf2 target proteins in SH-SY5Y; type: cell-based, human; settings: 24 h
Protocol: SH-SY5Y cells were plated in 6-well plates at a density of 4×10^5 cells per well. BV-2 cells were plated in 6-well plates at a density of 2.5×10^4 cells per well. […] Following treatment, cells were washed twice with cold PBS and harvested in lysis buffer. Cells were sonicated and debris was cleared by centrifugation (10 min @ 18,000 rcf, Beckman Coulter, microfuge 18 centrifuge). Total protein in supernatant was quantified using Bio-Rad protein reagent with BSA as a standard. Equal amounts of total cellular protein were separated on SDS-PAGE, and proteins were transferred to nitrocellulose membrane. Membranes were blocked for 1 hour in TBST (1×TBS with 0.1% Tween-20) containing 5% milk, washed 3 times with TBST, and incubated with primary antibodies overnight at 4° C. NQO1 antibody was from Abcam (#AB2346); HMOX1 (HO-1) antibody was from Santa Cruz (#sc-10789); actin antibody was from Millipore (#MAB 1501). After washing with TBST, secondary antibodies were added in TBST+5% milk for 1 h at room temperature. AffiniPure goat anti-rabbit or anti-mouse IgG secondary antibodies were from Jackson ImmunoResearch (catalog #111-035-144 and #115-035-146, respectively). Membranes were washed in TBST, developed using ECL, and exposed to X-ray film. […] HMOX1 protein was not detected in untreated or RTA 408-treated SH-SY5Y cells. […] The same amount of 63170 (54.6 nM) was required.

[2] = system: phosphorylation of IκBα in HeLa cells; test: TNF-α-induced phosphorylation of IκBα in HeLa (Western); type: cell-based, human; settings: 6 h pretreatment, TNF-α 20 ng/mL 5 min
Protocol: Total and phosphorylated levels of IκBα were evaluated by Western blot. Primary IκBα antibodies were from Santa-Cruz (sc-371), pIκBα antibody was from Cell Signaling (9246), actin antibody was from Millipore (MAB 1501). Peroxidase-conjugated affini-pure Goat anti-Rabbit (IgG) and peroxidase-conjugated affini-pure Goat anti-Mouse IgG secondary antibodies were purchased from Jackson ImmunoResearch. Protein blots were developed using ECL, and exposed to X-ray film.

[3] = system: bleomycin-induced pulmonary fibrosis; test: Bleomycin-induced pulmonary fibrosis in mice; type: in vivo, mouse; settings: 10, 30, or 100 mg/kg oral gavage daily for 39 days
neurobehavioral measures = test: Neurobehavioral evaluation (FOB) in rats; type: in vivo, rat
Protocol: One additional group of 10 animals/sex served as the control and received vehicle (sesame oil).
Observations for morbidity, mortality, injury, and availability of food and water were conducted twice daily for all animals. Observations for clinical signs were conducted prior to dosing on Day 1 and following each functional observational battery (FOB) evaluation. FOB evaluations were conducted pre-dose (Day −1) and at approximately 4 and 24 h post-dose. Body weights were measured and recorded pre-dose on Day 1.

pulmonary function = test: Pulmonary evaluation in rats; type: in vivo, rat; settings: single oral dose up to and including 30 mg/kg
Protocol: One additional group of 8 animals/sex served as the control and received vehicle (sesame oil).
Observations for mortality, morbidity, injury, and availability of food and water were conducted twice daily for all animals. Clinical observations were conducted prior to dosing, approximately 4 h post-dose, and following completion of the 8-h pulmonary monitoring period. […] Pulmonary function (respiratory rate, tidal volume, and minute volume) was monitored for at least 1 h prior to dosing to establish a baseline and for at least 8 h post-dose.

[4] = Metabolism in rodent (mouse, rat) liver microsomes; type: in vitro ADME, mice, rats; settings: 60-min incubation, NADPH and UGT
CYP3A4/5 = test: CYP450 inhibition in pooled human liver microsomes, CYP3A4/5; type: in vitro ADME; settings: read-out: Ki, direct inhibition of CYP3A4/5
Excerpt: In addition, there was little or no evidence of metabolism-dependent inhibition of any of the enzymes tested.

[5] = system: fractionated radiation dermatitis; test: Fractionated radiation dermatitis in Balb/c mice; type: in vivo, mouse; settings: for % Days ≧ 2 (dermatitis score) / % Days ≧ 3 (dermatitis score): 6 × 10 Gy
Protocol: The mice were irradiated on days 0-2 and 5-7 with six 10-Gy doses […]. Clinical dermatitis scores for the mice were evaluated blindly every two days from day 4 until the end of the study. […] Study and treatment parameters can be found in Table 6.
By analyzing the average clinical scores that were shown in FIG. 46, an area under the curve (AUC) analysis was performed, which yielded the severity of the dermatitis relative to how long the dermatitis persisted.

[6] = system: LNCaP prostate cancer cell line; test: Cytotoxicity in combination with 5-fluorouracil in LNCaP; type: cell-based; settings: RTA 408 0.125 to 0.5 μM
Excerpt: This evidence supports the concept that RTA 408 could act synergistically with cancer therapeutic agents and may be used in some embodiments to provide greater efficacy in treating cancer patients.

[7] = system: aqueous humor protein after paracentesis; test: Ocular inflammation (paracentesis) in rabbits; type: in vivo, rabbit; settings: 0.01% RTA 408 in the formulation, instillation
Protocol: Each rabbit was given three instillations within 60 min before induction of paracentesis and two instillations within 30 min after induction of paracentesis. Each instillation was 50 μL and given in both eyes. Aqueous humor for 6 animals per time-point was collected 30 min and again 2 h after induction of paracentesis. The amount of inflammation was determined by protein concentration in the aqueous humor.

[8] = system: LPS-induced NO (plasma NOx, Griess Reaction); test: Suppression of NO in vivo after LPS in CD-1 mice; parameters: species or system mouse; settings: LPS 5 mg/kg 24 h later
Protocol: FIG. 51—Dose-dependent suppression of NO in vivo by 63415. CD-1 mice (n=6) were dosed with DMSO or […] by oral gavage. LPS (5 mg/kg) was administered 24 h later. Twenty-four hours after LPS administration, whole blood was collected for NO assay. NO inhibition was determined by Griess Reaction from reduced, de-proteinated plasma.

NQO1 activity = NQO1 activity induction in mouse liver, lung, and kidney after PO QD×3; type: in vivo; settings: mice PO QD×3 25 mg/kg, 6 h after last dose
Protocol: FIG. 53—NQO1 activity induction in mouse liver, lung, and kidney by 63415. Mice were dosed PO QD×3 with 25 mg/kg. Tissues were collected 6 h after the last dose, and analysis of NQO1 activity was performed.

[9] = system: LPS-induced pulmonary inflammation; test: LPS-induced pulmonary inflammation in mice
[10] = Plasma protein binding (ultracentrifugation), minipig

## CC1(C)CC[C@]2(NC(=O)C(C)(F)F)CC[C@]3(C)[C@H](C(=O)C=C4[C@@]5(C)C=C(C#N)C(=O)C(C)(C)[C@@H]5CC[C@]43C)[C@@H]2C1 [RTA 408, N-((4aS,6aR,6bS,8aR,12aS,14aR,14bS)-11-cyano-2,2,6a,6b,9,9,12a-heptamethyl-10,14-dioxo-1,2,3,4,4a,5,6,6a,6b,7,8,8a,9,10,12a,14,14a,14b-octadecahydropicen-4a-yl)-2,2-difluoropropanamide]
[1]
  NQO1 protein levels: increased NQO1 protein levels in SH-SY5Y cells in a dose-dependent manner
[2]
  TNF-α-induced phosphorylation of IκBα: inhibited TNF-α-induced phosphorylation of IκBα in a dose-dependent manner
[3]
  Inflammation and interstitial fibrosis (lung histology): no statistically significant effects were observed
Neurobehavioral measures; 30 mg/kg
  Body weight gain approximately 24 h after dosing: Slight decreases in body weight gain
Neurobehavioral measures; single oral dose up to and including 30 mg/kg
  Neurobehavioral endpoints: did not produce any adverse effects
Pulmonary function
  Pulmonary endpoints (respiratory rate, tidal volume, minute volume): did not produce any adverse effects
[4]
  Parent molecule remaining: > 65%
CYP3A4/5
  Ki: ~500 nM
[5]; 0.1% to 1% topical formulations
  Average clinical dermatitis score: statistically significant improvement in the scores
[5]; topical 0.01%
  % Days ≧ 2 (dermatitis score): 54%
  % Days ≧ 3 (dermatitis score): 29%
[5]; topical 0.1%
  % Days ≧ 2 (dermatitis score): 40%
  % Days ≧ 3 (dermatitis score): 13%
[5]; topical 1%, vehicle 33%
  % Days ≧ 3 (dermatitis score): 6%
[5]; topical 1%, vehicle 60%
  % Days ≧ 2 (dermatitis score): 21%
[6]
  Cytotoxicity of 5-fluorouracil in combination: statistically significant increase in cytotoxicity when combined with RTA 408
[7]
  Aqueous humor protein: reduction in aqueous humor protein similar to that of the highest concentration of any of the other reference compounds
[8]; 13 mg/kg oral gavage
  NOx Levels (% vs LPS Controls): 30%
[8]; 25 mg/kg oral gavage
  NOx Levels (% vs LPS Controls): 18%
[8]; 50 mg/kg oral gavage
  NOx Levels (% vs LPS Controls): 16%
NQO1 activity
  NQO1 activity induction, Kidney: 10.9
  NQO1 activity induction, Liver: 10.9
  NQO1 activity induction, Lung: 1.75
[9]; 10 mg/kg daily for six days
  BALF cytokines, second study: Significant reductions in TNF-α
[9]; 30 mg/kg daily for six days
  BALF cytokines, second study: significant reductions in IL-12p40, TNF-α, and RANTES
[9]; 100 mg/kg daily, starting on Day 3
  Body weight, second study: significant decreases in body weight
[9]; 10 and 30 mg/kg
  Lung NQO1 enzyme activity (with increases in total GSH), second study: significant induction of NQO1 enzyme activity
[9]; 30, 100, or 150 mg/kg orally once daily for three days
  BALF pro-inflammatory markers, first study: significant reduction in IL-12p40 at all doses and in TNF-α at the 100 and 150 mg/kg doses
[9]; QD×3, LPS 1 h after last dose, BALB/c mice
  Peak reductions in TNF-α, IL-6, and IL-12 in BALF: 50%-80%
[10]
  fraction unbound: < 0.01
